In patent US9249114B2, “Thiazole derivatives” (Merck Patent GmbH, priority 2011, dated 2016):

Key:
[1] = test system: phospho-IRF3 Ser 386; assay: Cell test: dose response inhibition of phospho-IRF3 Ser 386 in MDA-MB-468 cells; type: cell-based; conditions: Homo sapiens, Poly(I:C) stimulation, read-out: IC50 of reference inhibitor in phospho-IRF3 cell assay
Excerpt: Cell Test Dose Response Inhibition of Phospho-IRF3 […] cell/MDAMB468/INH/PHOS/IMAG/pIRF3 1. Scope Although TBK1 and IKKε are best known as key players in the innate immune response, recent findings have pointed towards a role for TBK1 and IKKi in Ras-induced oncogenic transformation. TBK1 was identified as a RalB effector in the Ras-like (Ral)-guanine nucleotide exchange factor (GEF) pathway that is required for Ras-induced transformation. TBK1 directly activates IRF3 which, upon phosphorylation, homodimerizes and translocates to the nucleus where it activates processes involved with inflammation, immune regulation, cell survival and proliferation. This assay has been devised in order to assess the efficacy/potency of TBK1/IKKε inhibitor compounds based on the immunocytochemical detection of nuclear localised phospho-IRF3, a target directly downstream of TBK1. […] 2. Assay Overview Day 1: MDA-MB-468 cells are detached with HyQ-Tase, counted, and seeded into a 384-well clear bottom TC-surface plate at density of 10,000 cells per well in a total volume of 35 ul complete medium. Alternatively cells are directly seeded from frozen vials. […] Day 3: The primary antibody is washed off, an AlexaFluor488-conjugated secondary is added, cells are counterstained with propidium iodide followed by image acquisition on IMX Ultra high content reader. […]

[2] = target: IKKε (Homo sapiens (Human), UniProt Q14164); assay: IKKε kinase assay (384-well Flashplate); type: biochemical; conditions: 10 μM ATP, 2 hours at 30° C.; read-out: IKKε enzyme assay IC50
Sequence of IKKε (Q14164 whole entry): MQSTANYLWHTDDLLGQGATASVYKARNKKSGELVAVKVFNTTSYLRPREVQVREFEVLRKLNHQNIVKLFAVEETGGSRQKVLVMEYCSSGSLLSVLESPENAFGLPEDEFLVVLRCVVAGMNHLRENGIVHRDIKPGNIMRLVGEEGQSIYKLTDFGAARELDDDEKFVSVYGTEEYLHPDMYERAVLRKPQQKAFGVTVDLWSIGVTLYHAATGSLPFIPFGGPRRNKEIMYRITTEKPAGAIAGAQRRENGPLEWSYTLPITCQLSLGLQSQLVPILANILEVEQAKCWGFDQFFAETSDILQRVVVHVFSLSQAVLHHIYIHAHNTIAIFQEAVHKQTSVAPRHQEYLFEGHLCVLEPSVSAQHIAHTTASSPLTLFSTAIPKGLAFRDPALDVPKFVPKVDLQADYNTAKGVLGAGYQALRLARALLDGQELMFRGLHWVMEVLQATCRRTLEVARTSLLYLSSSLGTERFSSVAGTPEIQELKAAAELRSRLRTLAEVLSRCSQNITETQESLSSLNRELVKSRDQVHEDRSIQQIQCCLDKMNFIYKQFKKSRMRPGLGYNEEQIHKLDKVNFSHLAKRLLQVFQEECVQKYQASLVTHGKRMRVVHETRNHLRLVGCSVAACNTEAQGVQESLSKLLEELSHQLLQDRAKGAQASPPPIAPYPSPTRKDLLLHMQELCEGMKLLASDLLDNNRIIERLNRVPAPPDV
Description: Test for the Inhibition of IKKε
IKKε—Kinase Assay (IKKepsilon)
The kinase assay is performed either as 384-well Flashplate assay (for e.g. Topcount measurement). […] The reaction is stopped with 25 μl 200 mM EDTA. After 30 Min at room temperature the liquid is removed and each well washed thrice with 100 μl 0.9% sodium chloride solution. […] Radioactivity is measured with Topcount (PerkinElmer). Results (e.g. IC50-values) are calculated with program tools provided by the IT-department (e.g. AssayExplorer, Symyx).

[3] = target: TANK binding kinase (TBK1) (Homo sapiens (Human), UniProt Q9UHD2); assay: TBK1 enzyme assay (384-well Flashplate kinase assay); type: biochemical; conditions: 10 μM ATP, 120 Min at 30° C.
Sequence of TANK binding kinase (TBK1) (Q9UHD2 whole entry): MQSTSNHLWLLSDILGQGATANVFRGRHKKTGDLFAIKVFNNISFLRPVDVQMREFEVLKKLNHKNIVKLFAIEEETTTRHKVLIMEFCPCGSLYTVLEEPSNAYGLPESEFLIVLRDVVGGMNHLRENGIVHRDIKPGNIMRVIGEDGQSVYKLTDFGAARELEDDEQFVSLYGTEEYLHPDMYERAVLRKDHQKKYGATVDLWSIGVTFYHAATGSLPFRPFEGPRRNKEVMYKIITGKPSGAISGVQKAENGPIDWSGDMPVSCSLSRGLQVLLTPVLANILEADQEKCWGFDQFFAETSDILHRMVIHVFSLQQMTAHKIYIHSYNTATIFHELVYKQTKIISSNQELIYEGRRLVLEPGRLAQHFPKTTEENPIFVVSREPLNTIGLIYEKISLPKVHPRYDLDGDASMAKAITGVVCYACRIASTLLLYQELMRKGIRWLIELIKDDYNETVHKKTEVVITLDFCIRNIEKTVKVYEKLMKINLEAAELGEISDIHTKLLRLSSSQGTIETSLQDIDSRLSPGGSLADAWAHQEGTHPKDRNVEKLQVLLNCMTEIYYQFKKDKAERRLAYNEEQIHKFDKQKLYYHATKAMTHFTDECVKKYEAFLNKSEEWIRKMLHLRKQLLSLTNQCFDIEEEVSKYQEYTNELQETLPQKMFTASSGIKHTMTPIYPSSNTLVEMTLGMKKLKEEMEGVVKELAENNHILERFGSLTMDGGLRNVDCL
Description: Test for the Inhibition of TBK1
The kinase assay is performed as 384-well Flashplate assay (for e.g. Topcount measurement. 0.6 nM TANK binding kinase (TBK1), 800 nM biotinylated MELK-derived peptide (Biotin-Ah-Ah-[…]) SEQ ID NO: 2 and 10 μM ATP (spiked with 0.25 μCi ^33P-ATP/well) are incubated in a total volume of 50 μl (10 mM MOPS, 10 mM Mg-acetat, 0.1 mM EGTA, 1 mM DTT, 0.02% Brij35, 0.1% BSA, pH 7.5) with or without test compound for 120 Min at 30° C. The reaction is stopped with 25 μl 200 mM EDTA. After 30 Min at room temperature the liquid is removed and each well washed thrice with 100 μl 0.9% sodium chloride solution. Nonspecific reaction is determined in presence of 100 nM Staurosporine. Radioactivity is measured in a Topcount (PerkinElmer). Results (e.g. IC50-values) are calculated with program tools provided by the IT-department (e.g. AssayExplorer, Symyx).

Structure (SMILES)	IC50 [1]	IC50 [2]	IC50 [3]
O=C(NCCCNc1nc(Nc2cccc(NC(=O)N3CCCC3)c2)ncc1I)c1cccs1 [BX-795]	200 to 800 nM	–	–
NC(=O)c1nc(-c2ccncc2)sc1NC(=O)c1ccsc1 [Compound A65, 2-pyridin-4-yl-5-[(3-thienylcarbonyl)amino]-1,3-thiazole-4-carboxamide]	–	480 nM	200 nM
